Earlier results as cited in US9744192B2, “Methods of treating chronic rhinosinusitis” (priority 2015, dated 2017).
Read-outs that look alike come from different tables or passages of the source.

Key:
[1] = aqueous solution, pH=7.4
[2] = tested on: 17 bacteria and fungi (human pathogens)
[3] = tested on: Bacillus shiga-kruse (aka: Shigella dysenteriae); conditions: 2-3% aqueous boric acid, agar culture
[4] = tested on: Candida albicans; conditions: for strains with complete growth inhibition: 1% aqueous boric acid
[5] = tested on: 17 bacterial strains including Staphylococcus aureus, Enterococcus faecalis, E. coli, Klebsiella pneumonia and others; conditions: 2.5% boric acid
[6] = tested on: Saccharomyces cerevisiae cells; conditions: living cells

## OB(O)O [boric acid, Boric acid]
In vivo
  tissue irritation or other adverse events: little or no evidence
topical
  absorption across uninjured skin or vaginal epithelium: not significantly absorbed
[1]
  borate B(OH)4− share of equilibrium: 1.6%
  free boric acid B(OH)3 share of equilibrium: 98.4%
[2]; boric acid 1.8-2%, urine samples, up to 24 hours at 24° C.
  integrity of initial bacterial or fungal counts: maintained for all human pathogens studied
[2]; preserved samples diluted out
  reversibility of the bacteriostatic effect after dilution into nutrient culture media: rapid and complete reversibility
[3]
  agglutination: marked agglutination
[4]; fluconazole-resistant strains
  strains with complete growth inhibition: 24 of the 25
[4]; fluconazole-susceptible strains
  strains with complete growth inhibition: 45 of the 46
[4]; 1% boric acid
  sudden physical membrane damage: No sign of sudden physical membrane damage
[4]; 24 hour exposure to 1% boric acid
  membrane integrity: decreased only slightly
[5]
  bacterial strains with complete growth inhibition: 17 of 17
[6]
  effect on cell morphology: alter the morphology
